Test results: the NIST ThermoML archive (doi:10.1021/je800157v)

Columns and labels:
[1] = 101 kPa, Liquid
[2] = xn = mol fraction of the nth substance listed; settings: 101 kPa, Liquid

CCC(C)O (stereo not given) [butan-2-ol]
[1]
Settings | mass density [kg/m3]
288.15 K | 810.64
293.15 K | 806.59
298.15 K | 802.47
303.15 K | 798.27
308.15 K | 793.97
313.15 K | 789.59

ClC(Cl)Cl [trichloromethane]
[1]
Settings | mass density [kg/m3]
288.15 K | 1498.08
293.15 K | 1488.64
298.15 K | 1479.15
303.15 K | 1469.61
308.15 K | 1460.03
313.15 K | 1450.41

c1ccccc1 [benzene]
[1]
Settings | mass density [kg/m3]
288.15 K | 884.25
293.15 K | 878.92
298.15 K | 873.58
303.15 K | 868.23
308.15 K | 862.87
313.15 K | 857.5

CCC(C)O (stereo not given) [butan-2-ol] + ClC(Cl)Cl
[2], x1 = 1
Settings | mass density [kg/m3]
288.15 K | 810.64
293.15 K | 806.59
298.15 K | 802.47
303.15 K | 798.27
308.15 K | 793.97
313.15 K | 789.59

c1ccccc1 [benzene] + CCC(C)O
[2], x2 = 0
Settings | mass density [kg/m3]
288.15 K | 884.25
293.15 K | 878.92
298.15 K | 873.58
303.15 K | 868.23
308.15 K | 862.87
313.15 K | 857.5
